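Cells were grown in 96-well plates and exposed to each compound for 48 hours at five concentrations; endpoints were interpolated linearly between bracketing concentrations, or set to the highest concentration if not reached. Definition used: TGI = concentration required for complete inhibition of growth.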
What was measured:
Test in all cases: NCI-60 cell line screen, 48 h
DMS 114 small cell lung = test system: DMS 114 small cell lung
HOP-18 NSCLC = test system: HOP-18 NSCLC
LXFL 529 NSCLC = test system: LXFL 529 NSCLC
M19-MEL melanoma = test system: M19-MEL melanoma
DMS 273 small cell lung = test system: DMS 273 small cell lung
RXF-631 renal = test system: RXF-631 renal
SNB-78 CNS = test system: SNB-78 CNS
KM20L2 colon = test system: KM20L2 colon
DLD-1 colon = test system: DLD-1 colon
XF 498 CNS = test system: XF 498 CNS

Structure (SMILES)	TGI (DMS 114 small cell lung)	TGI (HOP-18 NSCLC)	TGI (LXFL 529 NSCLC)	TGI (M19-MEL melanoma)	TGI (DMS 273 small cell lung)	TGI (RXF-631 renal)	TGI (SNB-78 CNS)	TGI (KM20L2 colon)	TGI (DLD-1 colon)	TGI (XF 498 CNS)
COc1cc(C=O)c(-c2c(C=O)ccc3c2OCO3)c(OC)c1OC	> 100 µM	> 100 µM	> 100 µM	> 100 µM	> 100 µM	> 100 µM	> 100 µM	> 100 µM	> 100 µM	–
COc1ccc2nc3cc(Cl)ccc3c(Sc3ccc([N+](=O)[O-])cc3C)c2c1	> 100 µM	> 100 µM	> 100 µM	> 100 µM	> 100 µM	–	> 100 µM	> 100 µM	> 100 µM	> 100 µM
O=C(Nc1cccc(O)c1)C(=O)C1C(=O)NC(=S)NC1=O	> 100 µM	> 100 µM	> 100 µM	> 100 µM	> 100 µM	–	> 100 µM	> 100 µM	> 100 µM	> 100 µM
CS(=O)(=O)C(C#N)c1nc2ccccc2nc1Cl (stereo not given)	> 100 µM	–	> 100 µM	> 100 µM	> 100 µM	–	> 100 µM	–	> 100 µM	> 100 µM
O=C1COc2cc(NC(=S)Nc3ccccc3)ccc2N1	> 100 µM	> 100 µM	> 100 µM	> 100 µM	> 100 µM	> 100 µM	> 100 µM	> 100 µM	> 100 µM	> 100 µM
CC1(c2cccc(C3CC4(CCC3=O)OCCCCO4)c2)OCCO1 (stereo not given)	> 100 µM	> 100 µM	> 100 µM	> 100 µM	> 100 µM	–	> 100 µM	> 100 µM	> 100 µM	–
CC(=O)c1ccc(NC(=O)/C(CC(=O)c2sc(-c3cccnc3)nc2C)=N/NC(N)=O)cc1	> 100 µM	–	> 100 µM	> 100 µM	–	–	> 100 µM	> 100 µM	–	> 100 µM
CCOC1C(Br)Cn2c(=O)c3cc4ccccc4cc3c(=O)n2C1C (stereo not given)	> 100 µM	–	> 100 µM	> 100 µM	> 100 µM	–	> 100 µM	> 100 µM	> 100 µM	> 100 µM
OCC12C=CC(C1)c1ccccc12 (stereo not given)	> 100 µM	> 100 µM	> 100 µM	> 100 µM	> 100 µM	> 100 µM	–	> 100 µM	> 100 µM	–
N#C/C(=C/c1cccc(Oc2ccccc2)c1)c1ccccc1	> 100 µM	> 100 µM	> 100 µM	> 100 µM	–	–	> 100 µM	–	> 100 µM	> 100 µM
CCN1C[C@]2(C)CC[C@H](O)C34C1C(C[C@@H]32)[C@@]1(O)CC[C@H]2C[C@@H]4[C@@H]1[C@H]2O	> 100 µM	> 100 µM	> 100 µM	> 100 µM	> 100 µM	–	> 100 µM	> 100 µM	> 100 µM	–
CCC(CC)NC1=C(NC(C)=O)C(=O)c2ccccc2C1=O	–	–	> 50 µM	> 50 µM	> 50 µM	–	> 50 µM	> 50 µM	> 50 µM	> 50 µM
CC1(C)OCN(c2ccc(N3CCOCC3)cc2)Cn2c1nc1ccccc12	> 100 µM	> 100 µM	> 100 µM	> 100 µM	> 100 µM	–	> 100 µM	> 100 µM	> 100 µM	–
CCC1=CCN(c2cc(C)ccn2)OC1c1ccc(OC)cc1 (stereo not given)	91.6 µM	–	> 100 µM	> 100 µM	–	> 100 µM	–	> 100 µM	> 100 µM	–

Source: PubChem BioAssay (NCI)
